{
  "source": "patent US8168628B2",
  "about": "“Conjugated psychotropic drugs and uses thereof” (Ramot at Tel-Aviv University Ltd., priority 2001, dated 2012)",
  "key": {"rats": {"system": "rats", "assay": "D-Amphetamine-induced hyperactivity in rats", "assay_type": "in vivo, rat", "conditions": "i.p., amphetamine 2.5 mg/kg i.p.", "protocol": "D-Amphetamine-induced hyperactivity in rats: The efficacy of the chemical conjugates of the present invention was studied using the D-amphetamine-induced hyperactivity and motility model, which is known as one of the most established animal models for schizophrenia.\nNaïve Wistar male rats were placed in individual boxes. In each experiment 4 rats were studied. Perphenazine or equimolar doses of its chemical conjugate AN-168 were administered intraperitoneally (ip) to the rats 30 minutes prior to intraperitoneal administration of amphetamine (2.5 mg/kg), or 90 minutes prior to oral administration of amphetamine (2.5 mg/kg). The animals locomotor activity was assessed using two parameters: climbing attempts of the animal on the barrel walls (as big movements) and head movement of the animal (as small movements). Assessment was recorded every 15 minutes for two hours. Each animal was tested at each time point for 120 seconds.\nThe climbing behavior of the rats in each group was measured as described hereinabove."}, "C6 rat glioma cells [1]": {"system": "C6 rat glioma cells", "assay": "DNA fragmentation in C6 rat glioma cells (propidium iodide flow cytometry)", "assay_type": "cell-based", "conditions": "Cisplatin 30 μM; perphenazine 25 and 50 μM; AN 168 25, 50 μM (FIG. 18)", "protocol": "Apoptosis and DNA fragmentation: Fragmentation of cell nuclei was studied by flow cytometric analysis of propidium iodide-stained cells. This analysis was performed using a FACScan (Becton Dickinson, Mountain View, Calif.) equipped with an argon ion laser adjusted to an excitation wavelength of 480 nm and with a Doublet Discrimination Module (DDM). Lysis II (Becton Dickinson) software was used for data acquisition. Apoptotic nuclear changes were evaluated according to the criteria of Nicolletti et al..\nThe DNA fragmentation was determined by the propidium iodide flow cytometric method described hereinabove."}, "C6 rat glioma cells [2]": {"system": "C6 rat glioma cells", "assay": "Viability of C6 rat glioma cells (neutral red)", "assay_type": "cell-based", "protocol": "(§1) Proliferation of cancer and normal cells: Proliferation was measured by neutral red assay or by a fluorometric assay quantitating DNA content. In the neutral red assay, the neutral red is absorbed by lysosomes, thus causing coloring of living cells. Quantitative analysis is performed by colorimetric assay (ELISA reader at 550 nm). In the fluorometric assay, alamar blue is used as a redox indicator. Alamar blue fluorescence was measured at an excitation wavelength of 544 nm and an emission wavelength of […] (FLUOstar BMG Lab Technologies, Offenburg, Germany).\nThe cells were sub-cultured and the tested compounds were added thereto in increasing concentrations, up to 100 μM."}, "MES SA": {"system": "MES SA", "assay": "Proliferation test, MES SA cells", "assay_type": "cell-based", "conditions": "Homo sapiens, linear regression of survival percentage", "protocol": "Cell lines: Human prostate carcinoma (PC-3), human colon carcinoma (HT-29), murine melanoma (B-16) and its drug resistant subclone (B-16 MDR), mouse fibroblasts (3T3), myeloid leukemia (HL 60) and its drug resistant subclone (HL 60 MX2), endometrium cell line (MES SA) and its drug resistant subclone (MES DX5), jurkat T lymphoma and monocyte leukemia (U-937), were used in this study.\nas §1\nThe cells were sub-cultured and the tested compounds were added thereto in increasing concentrations. The IC50 values were determined by linear regression of the survival percentage of the cells."}, "prolactin": {"system": "prolactin", "assay": "Prolactin blood level in rats (enzyme immunometric assay)", "assay_type": "in vivo, rat", "source_text": "Prolactin secretion: Typical neuroleptics induce hyperprolactinemia, which is frequently associated with gallactorehea and impaired gonadal and sexual function. The measurement of the circulatory plasma prolactin level was therefore used as a sensitive biochemical marker for the psychotropic activity of the known neuroleptics and the chemical conjugates of the present invention, following intraperitoneal or oral administration thereof. Thus, blood was collected from the punctured eye orbital of rats under ether anesthesia and the assay was performed using Millennia, rat prolactin enzyme immunometric assay-kit (DPC, USA)."}, "[3]": {"assay": "Stability upon prolonged storage (NMR)", "assay_type": "physicochemical", "conditions": "about 3 months storage; NMR spectroscopy"}, "[4]": {"conditions": "C6 glioma (MDR) cells, 24 hours (FIG. 14)"}},
  "note": "Counter-ions that a name gives are not always drawn.",
  "data": [
    {"smiles": "NCCCC(=O)OCCN1CCN(CCCN2c3ccccc3Sc3ccc(Cl)cc32)CC1", "note": "[AN-168, Perphenazine 4-aminobutyrate Trihydrochloride]", "values": [
      {"measurement": "D-amphetamine-induced climbing behavior", "setting": "rats; AN-168 0.5 or 1.5 mg/kg, two hours (FIGS. 22, 23)", "value": "completely antagonized the climbing behavior induced by amphetamine even at low doses"},
      {"measurement": "D-amphetamine-induced head movements and other small body movement", "setting": "rats; two hours (FIGS. 24, 25)", "value": "inferior to that of perphenazine"},
      {"measurement": "DNA fragmentation", "setting": "C6 rat glioma cells [1]", "value": "induced a dramatically increase in DNA fragmentation"},
      {"measurement": "anti-proliferative activity in C6 glioma cells", "setting": "C6 rat glioma cells [2]; [4]", "value": "high anti-proliferative activity"},
      {"measurement": "concentration causing substantial cell death", "setting": "C6 rat glioma cells [2]; [4]", "value": "about 20 μM"},
      {"measurement": "IC50", "setting": "C6 rat glioma cells [2]; Rattus norvegicus, Glioma cell, 24 hours treatment, neutral red, up to 100 μM (FIG. 14)", "value": 24.2, "unit": "µM"},
      {"measurement": "IC50", "setting": "MES SA", "value": 18.2, "unit": "µM"},
      {"measurement": "time at which prolactin blood level peaked", "setting": "prolactin; i.p., measured at 0, 60 and 120 min after treatment", "value": 60, "unit": "min"},
      {"measurement": "prolactin blood level compared with perphenazine", "setting": "prolactin; oral, higher dose, 0, 90, 180 min (FIG. 12)", "value": "much higher as compared with animals treated with perphenazine"},
      {"measurement": "stability upon prolonged storage", "setting": "[3]", "value": "slow decomposition, probably due to hydrolysis, occurred"}
    ]}
  ]
}
